Where two headings read alike, the source gives them in different places.
Tests used:
[1] = target: T1, human H3 receptor (Homo sapiens, UniProt Q9Y5N1); assay: Human H3 radioligand binding ([3H]-N-alpha-methylhistamine, SPA)
T1 construct: expressed in transfected cells
Procedure, shortened: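 Compounds (0.01 nM-30 μM) competed with approximately 1 nM [3H]-N-alpha-methylhistamine for human H3 receptor in membranes of stably transfected CHO cells, 10 μg protein per well, in Tris-HCl pH 7.4/MgCl2/BSA buffer for 4 h at room temperature. Bound radioligand measured by scintillation proximity; 10 μM clobenpropit gave non-specific binding.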

[2] = target: T2, rat histamine H3 receptor (Rattus norvegicus, UniProt Q9QYN8); assay: Rat H3 radioligand binding ([3H]-N-alpha-methylhistamine, SPA)
T2 construct: encoding the entire 445-amino-acid rat histamine H3 receptor; expressed in transfected cells; membrane preparation
T2 sequence (Q9QYN8 whole entry): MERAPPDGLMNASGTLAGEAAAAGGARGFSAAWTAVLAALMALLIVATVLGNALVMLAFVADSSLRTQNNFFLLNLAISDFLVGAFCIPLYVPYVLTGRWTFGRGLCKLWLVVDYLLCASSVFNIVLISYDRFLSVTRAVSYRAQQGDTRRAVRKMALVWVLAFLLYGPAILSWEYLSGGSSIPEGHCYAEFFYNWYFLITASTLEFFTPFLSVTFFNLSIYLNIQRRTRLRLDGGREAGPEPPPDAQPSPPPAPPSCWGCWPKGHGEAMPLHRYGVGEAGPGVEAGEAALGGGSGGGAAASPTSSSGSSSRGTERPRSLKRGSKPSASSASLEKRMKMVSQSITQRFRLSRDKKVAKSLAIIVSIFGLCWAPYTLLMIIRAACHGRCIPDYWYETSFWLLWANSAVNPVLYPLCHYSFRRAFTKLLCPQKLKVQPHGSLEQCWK
Procedure, shortened: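 SPA-bead binding assay using [3H]-N-alpha-methylhistamine (approximately 1 nM final) with test compounds from 0.01 nM to 30 μM. Rat H3 receptor membranes came from stably transfected CHO-A3 cells; incubation ran 4 h at room temperature, in the dark, in Tris pH 7.4 buffer with MgCl2 and BSA. Clobenpropit (10 μM) gave non-specific binding.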

[3] = human H3 binding, Table D, read-out: Human H3 Ki
[4] = rat H3 binding, Table D, read-out: Rat H3 Ki
[5] = Human H3 binding, Table B, Examples 136-362, read-out: hum H3 binding Ki
[6] = Rat H3 binding, Table B, Examples 136-362, read-out: rat H3 binding Ki
[7] = Table A, human H3 binding, read-out: Human Ki
[8] = Table A, rat H3 binding, read-out: Rat Ki
[9] = Table C, human H3 binding, read-out: Human H3 Ki
[10] = Table C, rat H3 binding, read-out: Rat H3 Ki

T1 sequence (Q9Y5N1 whole entry): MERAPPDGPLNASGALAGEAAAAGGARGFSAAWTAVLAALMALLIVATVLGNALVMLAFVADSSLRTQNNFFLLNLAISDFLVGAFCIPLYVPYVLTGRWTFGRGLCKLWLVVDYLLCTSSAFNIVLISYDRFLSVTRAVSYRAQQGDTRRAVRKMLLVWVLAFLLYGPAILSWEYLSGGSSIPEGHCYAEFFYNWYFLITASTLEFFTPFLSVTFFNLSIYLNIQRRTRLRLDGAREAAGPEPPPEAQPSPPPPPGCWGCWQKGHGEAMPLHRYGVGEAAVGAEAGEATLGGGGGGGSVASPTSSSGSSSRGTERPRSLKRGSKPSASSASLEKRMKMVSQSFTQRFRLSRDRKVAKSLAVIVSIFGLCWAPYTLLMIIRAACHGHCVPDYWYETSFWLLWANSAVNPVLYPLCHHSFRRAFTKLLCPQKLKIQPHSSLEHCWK

| Compound | melting point | Ki [1, 5] | Ki [2, 6] | other results |
| --- | --- | --- | --- | --- |
| CCc1nnc(COc2ccc3c(c2)CCC2(CCN(C4CCC4)CC2)O3)o1 [Example 678] | 170 to 172 °C |  |  | Ki [1, 3]: < 200 nM; Ki [2, 4]: < 200 nM |
| COC1CCN(C(=O)c2ccc(-c3ccc4c(c3)COC3(CCN(C5CCC5)CC3)O4)cc2)CC1 [Example 263] | 94 to 96 °C | < 200 nM | < 200 nM |  |
| O=C(NC[C@@H]1CCCO1)c1ccc(-c2ccc3c(c2)COC2(CCN(C4CCC4)CC2)O3)cc1Cl [Example 585] | 159 to 161 °C |  |  | Ki [1, 3]: < 200 nM; Ki [2, 4]: < 200 nM |
| COc1cc(C(=O)O)ccc1-c1ccc2c(c1)COC1(CCN(C3CCC3)CC1)O2 [Example 699] | 282 to 284 °C |  |  | Ki [1, 3]: < 200 nM; Ki [2, 4]: < 200 nM |
| O=C(NC1CCOCC1)c1cccc(COc2ccc3c(c2)CCC2(CCN(C4CCC4)CC2)O3)c1 [Example 646] | 158 to 160 °C |  |  | Ki [1, 3]: < 200 nM; Ki [2, 4]: < 200 nM |
| Cc1cc(=O)[nH]cc1-c1ccc2c(c1)CCC1(CCN(C3CCC3)CC1)O2 [Example 771] | 252 to 254 °C |  |  | Ki [1, 3]: < 200 nM; Ki [2, 4]: < 200 nM |
| CNC(=O)c1cccc(-c2ccc3c(c2)CCOC2(CCN(C4CCC4)CC2)O3)c1 [Example 177] | 100.2 to 102.5 °C | 200 to 1000 nM | > 1000 nM |  |
| OCc1ccc(-c2ccc3c(c2)COC2(CCN(C4CCC4)CC2)O3)cc1 [Example 44] | 131 to 134 °C |  |  | Ki [1, 7]: < 200 nM; Ki [2, 8]: < 200 nM |
| c1ccc(Oc2ccc3c(c2)CCC2(CCN(C4CCC4)CC2)O3)nc1 [Example 241] | 232 to 234 °C | < 200 nM | < 200 nM |  |
| CN(C)C(=O)c1ccc(-c2ccc3c(c2)COC2(CCN(C4CCC4)CC2)O3)cc1 [Example 29] | 187 to 190 °C |  |  | Ki [1, 7]: < 200 nM; Ki [2, 8]: < 200 nM |
| O=C(Nc1ccc2c(c1)CCC1(CCN(C3CCC3)CC1)O2)c1ccncc1 [Example 188] | 65 to 67 °C | < 200 nM | < 200 nM |  |
| c1ccc(N2CCN(c3ccc4c(c3)CCC3(CCN(C5CCC5)CC3)O4)CC2)cc1 [Example 363] | 173 to 175 °C |  |  | Ki [1, 9]: < 200 nM; Ki [2, 10]: < 200 nM |
| CO[C@H]1CCN(C(=O)c2ccc(-c3ccc4c(c3)CCC3(CCN(C5CCC5)CC3)O4)cn2)C1 [Example 252] | 249 to 251 °C | < 200 nM | < 200 nM |  |
| CC(=O)Nc1ccc(-c2ccc3c(c2)COC2(CCN(C4CCC4)CC2)O3)cn1 [Example 46] | 186 to 187 °C |  |  | Ki [1, 7]: < 200 nM; Ki [2, 8]: < 200 nM |
| N#Cc1ccc(-c2ccc3c(c2)COC2(CCN(C4CCC4)CC2)O3)cn1 [Example 34] | 159.8 to 160.7 °C |  |  | Ki [1, 7]: < 200 nM; Ki [2, 8]: < 200 nM |
| O=c1[nH]cccc1-c1ccc2c(c1)COC1(CCN(C3CCC3)CC1)O2 [Example 488] | 167 to 169 °C |  |  | Ki ([1]; read-out: Human H3 Ki): < 200 nM; Ki ([2]; read-out: Rat H3 kI): < 200 nM |
| CNC(=O)c1ccc(-c2ccc3c(c2)CCOC2(CCN(C4CCC4)CC2)O3)cc1 [Example 180] | 155.6 to 157.3 °C | 200 to 1000 nM | > 1000 nM |  |
| [O-][S+]1CCC(c2ccc3c(c2)COC2(CCN(C4CCC4)CC2)O3)CC1 (stereo not drawn) [Example 473] | 187 to 189 °C |  |  | Ki ([1]; read-out: Human H3 Ki): < 200 nM; Ki ([2]; read-out: Rat H3 kI): < 200 nM |
| O=C(Nc1ccc2c(c1)COC1(CCN(C3CCC3)CC1)O2)c1ccncc1Cl [Example 221] | 192 to 193 °C | < 200 nM | < 200 nM |  |
| O=c1cc(-c2ccc3c(c2)COC2(CCN(C4CCC4)CC2)O3)ccn1CC(F)(F)F [Example 772] | 196 to 198 °C |  |  | Ki [1, 3]: < 200 nM; Ki [2, 4]: < 200 nM |

| Compound | melting point | Ki [1, 5] | Ki [2, 6] | other results |
| --- | --- | --- | --- | --- |
| O=C(Nc1ccc2c(c1)COC1(CCN(C3CCC3)CC1)O2)c1cccnc1 [Example 149] | 215 to 217 °C | < 200 nM | < 200 nM |  |
| COc1ncc(-c2ccc3c(c2)COC2(CCN(C4CCC4)CC2)O3)cc1O [Example 788] | 61 to 63 °C |  |  | Ki [1, 3]: < 200 nM; Ki [2, 4]: < 200 nM |
| NC(=O)COc1ccc2c(c1)CCC1(CCN(C3CCC3)CC1)O2 [Example 700] | 121 to 125 °C |  |  | Ki [1, 3]: < 200 nM; Ki [2, 4]: < 200 nM |
| CN(C)C(=O)c1cccc2c1ccn2-c1ccc2c(c1)COC1(CCN(C3CCC3)CC1)O2 [Example 85] | 76 to 80 °C |  |  | Ki [1, 7]: < 200 nM; Ki [2, 8]: < 200 nM |
| CN(C)C(=O)c1ccc(-c2ccc3c(c2)COC2(CCN(C4CCC4)CC2)O3)cc1F [Example 40] | 172.9 to 173.5 °C |  |  | Ki [1, 7]: < 200 nM; Ki [2, 8]: < 200 nM |
| Cc1cnccc1C(=O)Nc1ccc2c(c1)COC1(CCN(C3CCC3)CC1)O2 [Example 353] | 209 to 210 °C | < 200 nM | < 200 nM |  |
| O=C(c1ccc(-c2ccc3c(c2)CCC2(CCN(C4CCC4)CC2)O3)cc1F)N1CC[C@H](O)C1 [Example 194] | 78 to 80 °C | < 200 nM | < 200 nM |  |
| O=C(O)c1cc(-c2ccc3c(c2)COC2(CCN(C4CCC4)CC2)O3)cs1 [Example 570] | 230 to 240 °C (dec.) |  |  | Ki [1, 3]: < 200 nM; Ki [2, 4]: < 200 nM |
| COC[C@H](C)NC(=O)c1ccc(-c2ccc3c(c2)CCC2(CCN(C4CCC4)CC2)O3)cc1Cl [Example 591] | 120 to 122 °C |  |  | Ki [1, 3]: < 200 nM; Ki [2, 4]: < 200 nM |
| c1cnc(-c2ccc3c(c2)COC2(CCN(C4CCC4)CC2)O3)cn1 [Example 71] | 114 to 115 °C |  |  | Ki [1, 7]: < 200 nM; Ki [2, 8]: < 200 nM |
| O=C(Nc1ccc2c(c1)COC1(CCN(C3CCC3)CC1)O2)c1ccnc(F)c1 [Example 291] | 187 to 188 °C | < 200 nM | < 200 nM |  |
| O=C(Nc1ccccc1)Nc1ccc2c(c1)COC1(CCN(C3CCC3)CC1)O2 [Example 162] | 229 to 231 °C | < 200 nM | < 200 nM |  |
| O=C(NC[C@@H]1CCCO1)c1ccc(-c2ccc3c(c2)COC2(CCN(C4CCC4)CC2)O3)cc1F [Example 589] | 128 to 130 °C |  |  | Ki [1, 3]: < 200 nM; Ki [2, 4]: < 200 nM |
| O=c1ccc(-c2ccc3c(c2)COC2(CCN(C4CCC4)CC2)O3)cn1Cc1ccccc1 [Example 553] | 193 to 196 °C |  |  | Ki ([1]; read-out: Human H3 Ki): < 200 nM; Ki ([2]; read-out: Rat H3 kI): < 200 nM |
| O=C(C1CC1)N1CCN(c2ccc3c(c2)CCC2(CCN(C4CCC4)CC2)O3)CC1 [Example 376] | 169 to 171 °C |  |  | Ki [1, 9]: < 200 nM; Ki [2, 10]: < 200 nM |
| CO[C@H]1CCN(C(=O)c2ccc(-c3ccc4c(c3)CCC3(CCN(C5CCC5)CC3)O4)cc2)C1 [Example 211] | 70.2 to 71 °C | < 200 nM | < 200 nM |  |
| CS(=O)(=O)c1ccc(-c2ccc3c(c2)CC2(CCN(C4CCC4)CC2)O3)cc1 [Example 135, 1′-Cyclobutyl-spirobenzofuran-2(3H)-4′-piperidine-(5-(4-methylsulfonylphenyl))] | > 25 °C |  |  | Ki [1, 7]: < 200 nM; Ki [2, 8]: < 200 nM |
| c1ncc(-c2ccc3c(c2)COC2(CCN(C4CCC4)CC2)O3)cn1 [Example 45] | 153 to 155 °C |  |  | Ki [1, 7]: < 200 nM; Ki [2, 8]: < 200 nM |
| O=c1cccc(-c2ccc3c(c2)COC2(CCN(C4CCC4)CC2)O3)[nH]1 [Example 476] | 207 to 209 °C |  |  | Ki ([1]; read-out: Human H3 Ki): < 200 nM; Ki ([2]; read-out: Rat H3 kI): < 200 nM |
| COC1(c2ccc3c(c2)COC2(CCN(C4CCC4)CC2)O3)CCC1 [Example 559] | < 50 °C |  |  | Ki ([1]; read-out: Human H3 Ki): < 200 nM; Ki ([2]; read-out: Rat H3 kI): < 200 nM |

Source: patent US8513232B2, “Substituted spirocyclic piperidine derivatives as histamine-3 (H3) receptor ligands” (Cephalon, Inc., priority 2008, dated 2013)
